Source: BindingDB's records for patent US20230286943 (Sanofi, 2023)

Molecular target: T1, Interleukin-17A (Homo sapiens, UniProt Q16552)
T1 sequence (Q16552 whole entry): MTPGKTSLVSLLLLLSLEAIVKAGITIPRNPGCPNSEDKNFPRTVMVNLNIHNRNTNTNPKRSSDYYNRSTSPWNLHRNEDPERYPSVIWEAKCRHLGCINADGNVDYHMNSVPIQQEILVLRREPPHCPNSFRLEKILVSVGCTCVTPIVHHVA
Experiment: AlphaLISA Assay
Method: The ability of the compounds to block binding of IL-17A to its receptor, IL-17RA, was analysed in a competition assay using AlphaLISA technology (Perkin Elmer). The assay is a bead based AlphaLISA where the IL-17RA is captured on the acceptor bead via an Fc tag and IL-17A is captured on the streptavidin donor bead via a biotinylated anti-IL-17A antibody.Assay buffer was prepared by adding 0.05% Tween-20 (v/v) and 0.1% BSA to Phosphate Buffered Saline (PBS). The assay was carried out in 384-well white low volume plates (Corning 4512). 10 μL of a 7.5 nM stock of human recombinant IL-17A (R&D Systems 7955-IL/CF) diluted in assay buffer was dispensed into the assay plate and compounds or DMSO vehicle control were added in a volume of 75 nL using a D300 dispenser (Hewlett Packard). The compounds were pre-incubated with the IL-17A for 24 h at room temperature (or for 30 min, where indicated by * in Table A below) prior to addition of 5 μL of a 5 nM stock of human recombinant IL-17RA/Fc chimera (R&D Systems 177-IR-100) diluted in assay buffer. […] The luminescence signal was measured using an Enspire plate reader (Perkin Elmer) with excitation at 680 nm and emission at 615 nm. Data were analysed using GraphPad Prism and fitted to a 4-parameter logistic equation.

IC50: 794 nM
Compound: Cc1nnc(C)n1-c1ccc(NC(=O)[C@@H](NC(=O)c2ccnn2C)C2CCCCCC2)nc1 [US20230286943, Example 62]
